Results reported in the supplement of paper PMC10307832.

Assays:
Test in all cases: relative viability (nuclei count vs DMSO), 5 days (fraction); higher = more cells survive
[1] = compound: C1CC1C(=O)NC2=NNC3=C2C=CC(=C3)C4=CC(=CC=C4)C(=O)NC5CC5 [XMD13-2] + CC(=O)c1c(C)c2cnc(Nc3ccc(N4CCNCC4)cn3)nc2n(C2CCCC2)c1=O [Palbociclib] (partner 0.5 µM)
Procedure, shortened: (§1)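 Relative viability equals treated-well nuclei counts divided by vehicle-well nuclei counts. Counts came from 4× images of lung cancer cell lines grown in 1536-well plates for 5 days after pin-tool dosing on the day after seeding. Dosing used one drug alone or a fixed anchor-drug dose plus five library-drug doses (not always all listed) in √10 steps, and values are medians of duplicate plates.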

[2] = compound: C1CC1C(=O)NC2=NNC3=C2C=CC(=C3)C4=CC(=CC=C4)C(=O)NC5CC5 [XMD13-2] + CCNC(=O)c1noc(-c2cc(C(C)C)c(O)cc2O)c1-c1ccc(CN2CCOCC2)cc1 [Luminespib] (partner 0.01 µM)
Procedure, shortened: as §1

[3] = compound: Cc1ccc(C(=O)Nc2cccc(C(F)(F)F)c2)cc1Nc1cncc(C(N)=O)c1 [ALW-II-49-7] + Cc1nc(Nc2ncc(C(=O)Nc3c(C)cccc3Cl)s2)cc(N2CCN(CCO)CC2)n1 [Dasatinib] (partner 0.075 µM)
Procedure, shortened: as §1

[4] = compound: Cc1nc(Nc2ncc(C(=O)Nc3c(C)cccc3Cl)s2)cc(N2CCN(CCO)CC2)n1 [Dasatinib] + Nc1nc2[nH]cc(CCc3ccc(C(=O)N[C@@H](CCC(=O)O)C(=O)O)cc3)c2c(=O)[nH]1 [Pemetrexed] (partner 0.2 µM)
Procedure, shortened: as §1

| Cell Line | relative viability ([1]; first compound 0.05 µM) | relative viability ([1]; first compound 0.1581 µM) | relative viability ([1]; first compound 0.5 µM) | relative viability ([1]; first compound 1.581 µM) | relative viability ([1]; first compound 5 µM) | relative viability ([2]; first compound 0.05 µM) | relative viability ([2]; first compound 0.1581 µM) | relative viability ([2]; first compound 0.5 µM) | relative viability ([2]; first compound 1.581 µM) | relative viability ([2]; first compound 5 µM) | relative viability ([3]; first compound 0.08 µM) | relative viability ([3]; first compound 0.253 µM) | relative viability ([3]; first compound 0.8 µM) | relative viability ([3]; first compound 2.53 µM) | relative viability ([3]; first compound 8 µM) | relative viability ([4]; first compound 0.005 µM) | relative viability ([4]; first compound 0.01581 µM) | relative viability ([4]; first compound 0.05 µM) | relative viability ([4]; first compound 0.1581 µM) | relative viability ([4]; first compound 0.5 µM) |
| --- | --- | --- | --- | --- | --- | --- | --- | --- | --- | --- | --- | --- | --- | --- | --- | --- | --- | --- | --- | --- |
| 201T | 0.356 | 0.377 | 0.539 | 0.357 | 0.34 | 1.03 | 1.03 | 1.11 | 1.01 | 1.12 | 0.616 | 0.664 | 0.545 | 0.594 | 0.479 | 0.404 | 0.332 | 0.31 | 0.292 | 0.268 |
| A-427 | 0.568 | 0.499 | 0.573 |  | 0.473 | 1.08 | 0.846 | 0.94 | 0.945 | 0.849 | 0.686 | 0.824 | 0.733 | 0.741 | 0.627 | 0.972 | 0.832 | 0.807 | 0.556 | 0.619 |
| ABC-1 | 0.72 | 0.606 | 0.78 |  | 0.556 | 0.477 | 0.919 | 0.611 | 0.545 | 0.325 | 0.501 | 0.627 | 0.506 | 0.656 | 0.483 |  |  |  |  |  |
| BEN | 0.462 | 0.508 | 0.492 | 0.489 | 0.468 | 0.53 | 0.437 | 0.384 | 0.246 | 0.289 | 0.378 | 0.341 | 0.348 | 0.325 | 0.305 | 0.596 | 0.572 | 0.511 | 0.478 | 0.448 |
| CAL-12T | 0.567 | 0.418 | 0.478 | 0.504 | 0.371 | 0.373 | 0.832 | 0.933 | 0.286 | 0.75 | 0.433 | 0.223 | 0.277 | 0.372 | 0.266 | 1.23 | 1.2 | 1.27 | 0.929 | 0.479 |
| COR-L23 | 0.248 | 0.298 | 0.295 | 0.294 | 0.365 | 0.883 | 0.581 | 0.592 | 0.769 | 0.607 | 0.483 | 0.419 | 0.45 | 0.443 | 0.523 | 0.211 | 0.196 | 0.19 | 0.19 | 0.18 |
| COR-L 105 | 0.405 | 0.412 | 0.4 | 0.404 | 0.42 | 0.867 | 0.852 | 0.704 | 0.749 | 0.789 | 0.304 | 0.308 | 0.326 | 0.272 | 0.329 | 0.869 | 1.1 | 0.783 | 0.605 | 0.361 |
| ChaGo-K-1 | 0.923 | 0.897 | 0.958 | 0.92 | 0.795 | 0.585 | 0.582 | 0.603 | 0.617 | 0.476 | 0.538 | 0.668 | 0.554 | 0.539 | 0.501 | 0.256 | 0.255 | 0.254 | 0.244 | 0.235 |
| EKVX | 0.45 | 0.376 | 0.33 |  | 0.397 | 0.978 | 0.887 | 0.982 | 0.906 | 0.738 | 0.382 | 0.481 | 0.546 | 0.425 | 0.454 | 0.384 | 0.376 | 0.335 | 0.371 | 0.152 |
| EMC-BAC-2 | 0.558 | 0.519 | 0.536 | 0.497 | 0.47 | 1.36 | 1.1 | 1.05 | 1.14 | 1.04 | 0.311 | 0.324 | 0.284 | 0.293 | 0.29 | 0.455 | 0.42 | 0.405 | 0.345 | 0.273 |
| EPLC-272H | 0.314 | 0.344 | 0.329 | 0.279 | 0.317 | 0.414 | 0.125 | 0.734 | 0.199 | 0.124 | 0.283 |  | 0.26 | 0.345 | 0.375 | 0.385 | 0.356 | 0.286 | 0.154 | 0.198 |
| H3255 | 0.316 | 0.291 | 0.309 | 0.334 | 0.306 | 0.859 | 0.947 | 0.859 | 0.62 | 0.955 | 0.436 | 0.234 | 0.431 | 0.322 | 0.348 | 0.578 | 0.535 | 0.52 | 0.49 | 0.375 |
| HARA | 0.265 | 0.313 | 0.25 | 0.273 | 0.245 | 0.995 | 0.654 | 0.779 | 0.772 | 0.707 | 0.351 | 0.272 | 0.148 | 0.22 | 0.161 | 0.241 | 0.234 | 0.229 | 0.202 | 0.151 |
| HCC-15 | 0.798 | 0.684 | 0.803 | 0.709 | 0.594 | 0.379 | 0.492 | 0.479 | 0.238 | 0.192 | 0.667 | 0.614 | 0.692 | 0.684 | 0.664 | 0.198 | 0.207 | 0.209 | 0.203 | 0.205 |
| HCC-44 | 0.978 | 0.912 | 0.959 | 0.944 | 0.96 | 1.28 | 1.12 | 1.17 | 1.06 | 1.03 |  |  |  |  |  | 0.627 | 0.579 | 0.692 | 0.709 | 0.633 |
| HCC-78 | 0.45 | 0.459 | 0.448 | 0.438 | 0.483 |  |  |  |  |  | 0.475 | 0.466 |  | 0.361 | 0.383 | 0.913 | 0.894 | 0.936 | 0.899 | 0.76 |
| HCC-366 | 0.466 | 0.362 | 0.473 | 0.407 | 0.403 |  |  |  |  |  | 0.694 | 0.75 | 0.591 | 0.528 | 0.7 | 0.173 | 0.147 | 0.166 | 0.177 | 0.114 |
